Earlier results as cited in article PMC10719327, “A dose-escalation study of HP501, a highly selective URAT1 inhibitor, in male Chinese patients with hyperuricemia” (Scientific Reports, 2023).

Key:
[1] = system: Japanese patients with hyperuricemia; design: method as in PMID 30334639
[2] = system: patients; design: method as in PMID 29029210; settings: lesinurad monotherapy

SMILES	patients with serum creatinine elevated 1.5 times to baseline level [1] [%]	patients with increased serum creatinine [2]
CC(C)(Sc1ccncc1-c1ccc(C#N)c2ccccc12)C(=O)O [Verinurad]	17.1	–
O=C(O)CSc1nnc(Br)n1-c1ccc(C2CC2)c2ccccc12 [lesinurad]	–	About 24.30%
